Reference: patent US10899700B2, “Process for the separation of long chain amino acids and dibasic acids” (Vitaworks IP, LLC, priority 2017, dated 2021)

What was measured:
[1] = Solubility of sodium salts in water, ethanol and aqueous ethanol (FIG. 8); format: physicochemical; details: for solubility change of the sodium salt in aqueous ethanol (in words): aqueous ethanol versus water or ethanol; for solubility of the sodium salt in water and in ethanol (in words): both water and ethanol
Excerpt: FIG. 8. Solubility of 11-aminoundecanoic acid and dodecanedioic acid in aqueous ethanol solution of 2 M sodium hydroxide at different concentration of ethanol.
For example, FIG. 8 illustrates the solubility change of sodium salts of 11-aminoundecanoic acid and dodecanedioic acid in aqueous ethanol. […] This surprising finding renders the separation of these two salts possible.

[2] = Solubility of alkali salts in sodium hydroxide solution (FIG. 6, FIG. 7); format: physicochemical; details: 2 M sodium hydroxide, about 50° C.
Protocol: FIG. 6. Solubility curve of 11-aminoundecanoic acid in water at neutral pH, 1 M solution of sulfuric acid, and 2 M solution of sodium hydroxide.
FIG. 7. Solubility curve of heptanoic acid in a 6 M solution of sodium hydroxide and dodecanedioic acid in a 3 M solution of sodium hydroxide.
When the hydrolysis reaction of mixed amide derivatives from the Beckmann rearrangement is performed in the presence of alkali hydroxide, main products other than alkylamine are obtained in the form of their alkali salts. It was observed that a starting suspension of the mixed amide derivatives in a solution of alkali hydroxide is changed to a clear solution at a temperature of 60° C. or above after the hydrolysis.
Since long chain amino acid, e.g., 11-aminoundecanoic acid, has relatively constant solubility, evaporative concentration of the mother liquor will result in the crystallization of inorganic salt, in particular, sodium sulfate, along with valuable long chain amino acid. […] This finding greatly facilitates the separation of inorganic salt, most preferably, sodium sulfate, and the recovery of long chain amino acids.
In an alkali hydroxide hydrolysis of the mixed amide derivatives, two mole equivalents of alkali hydroxide are required, but more than two equivalents, usually between 2.5 to 3 equivalents of alkali hydroxide are used to achieve a complete hydrolysis. […]

[3] = physchem; details: aqueous buffer
[4] = Phase separation of hexylamine-water azeotrope distillate upon cooling; format: physicochemical; details: aqueous phase after cooling and phase separation
Excerpt: For the production of 11-aminoundecanoic acid and dodecanedioic acid, hexylamine is one of the main products. Hexylamine is found to form an azeotrope with water and can be separated from the solution by azeotropic distillation. Upon cooling, the distillate separates into an upper phase of nearly pure hexylamine and an aqueous phase containing not more than 2% of hexylamine. Hexylamine can also be separated from the mixture by steam distillation or steam stripping. Complete separation is accomplished when the distillate at the overhead becomes nearly neutral at a pH of 7-8.

Row | SMILES | solubility change of the sodium salt in aqueous ethanol (in words) [1] | solubility of the sodium salt in water and in ethanol (in words) [1] | solubility of the alkali salt in 2 M solution of sodium hydroxide (in words) [2] | solubility [3] | hexylamine content of the aqueous phase of the cooled azeotropic distillate [4]
1 | O=C(O)CCCCCCCCCCC(=O)O [dodecanedioic acid] | remains unchanged | nearly insoluble |  |  | 
2 | NCCCCCCCCCCC(=O)O [11-aminoundecanoic acid] | drastically increases the solubility | nearly insoluble | freely soluble |  | 
3 | O=C(O)CCCCCCCC(=O)O [azelaic acid] |  |  |  | > 600 mg/mL | 
4 | CCCCCCN [hexylamine] |  |  |  |  | not more than 2%
